Measured values taken from article PMC9911797, “Novel TLR7/8 agonists promote activation of HIV-1 latent reservoirs and human T and NK cells” (Frontiers in Microbiology, 2023).

Legend:
[1] = system: U1 monocytic cell line (latent HIV-1); experiment: HIV-1 p24 production in latently infected U1 cells (ELISA)
hTLR8 = target: T1, hTLR8 (Homo sapiens, UniProt Q9NR97); experiment: HEK-Blue hTLR8 SEAP reporter assay; type: cell-based; conditions: HEK-Blue hTLR8 cells, SEAP in supernatant
T1 construct: host or cells: HEK-Blue hTLR8 (HEK293-derived)
T1 sequence (Q9NR97 27-1041): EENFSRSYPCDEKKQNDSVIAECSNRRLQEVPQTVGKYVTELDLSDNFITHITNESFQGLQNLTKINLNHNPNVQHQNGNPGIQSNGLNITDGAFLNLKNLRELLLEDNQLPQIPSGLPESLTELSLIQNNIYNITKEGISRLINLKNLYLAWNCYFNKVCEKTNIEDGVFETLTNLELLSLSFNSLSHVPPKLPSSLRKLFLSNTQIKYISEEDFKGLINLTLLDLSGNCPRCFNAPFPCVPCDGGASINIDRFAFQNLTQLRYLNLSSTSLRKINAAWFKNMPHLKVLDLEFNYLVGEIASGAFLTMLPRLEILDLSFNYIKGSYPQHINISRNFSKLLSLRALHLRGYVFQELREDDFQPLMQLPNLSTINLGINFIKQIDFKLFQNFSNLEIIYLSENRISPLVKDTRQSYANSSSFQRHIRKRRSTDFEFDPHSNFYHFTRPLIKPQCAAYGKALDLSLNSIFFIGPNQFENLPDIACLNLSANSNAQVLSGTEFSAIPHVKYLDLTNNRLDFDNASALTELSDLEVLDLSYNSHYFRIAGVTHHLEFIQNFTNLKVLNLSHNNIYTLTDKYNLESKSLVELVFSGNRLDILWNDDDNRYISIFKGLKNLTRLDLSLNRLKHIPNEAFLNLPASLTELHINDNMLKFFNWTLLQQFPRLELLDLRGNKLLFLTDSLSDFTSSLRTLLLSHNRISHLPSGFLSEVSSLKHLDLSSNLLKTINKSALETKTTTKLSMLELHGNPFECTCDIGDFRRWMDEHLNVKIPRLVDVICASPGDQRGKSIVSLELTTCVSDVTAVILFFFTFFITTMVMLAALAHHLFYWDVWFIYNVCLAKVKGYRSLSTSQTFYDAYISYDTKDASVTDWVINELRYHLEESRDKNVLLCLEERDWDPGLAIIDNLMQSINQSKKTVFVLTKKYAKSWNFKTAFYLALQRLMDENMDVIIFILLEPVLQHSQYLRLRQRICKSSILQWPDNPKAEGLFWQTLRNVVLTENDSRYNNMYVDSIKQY
Protocol: (§1) Starting with the lead compound, 76 pyrido [3,2-d] pyrimidine derivatives were synthesized and optimized through structural modification from the deep hydrophobic region to the solvent-exposed region. Seventy-six compounds were evaluated for their in vitro activity using HEK-Blue hTLR7 or hTLR8 reporter cells, stably expressing the human TLR7 or TLR8 and an NF-κB/AP1-inducible SEAP (secreted embryonic alkaline phosphatase reporter gene).
(§2) Add 20 μl various concentrations of TLR agonists (10 dilutions) and in a 96-well plate. Then HEK-Blue hTLR7 and hTLR8 cells were suspended to 4 × 10^5 cells/ml in HEK-Blue Detection (InvivoGen) medium and added 180 μl per well. The plates were incubated at 37°C in 5% CO2 for 12 ~ 16 h. Stimulation with a hTLR7or hTLR8 ligand activates NF-κB to induce the production of secreted embryonic alkaline phosphatase (SEAP) in the culture supernatant. SEAP could be measured at OD630nm on an ELISA plate reader.

hTLR7 = target: T2, hTLR7 (Homo sapiens, UniProt Q9NYK1); experiment: HEK-Blue hTLR7 SEAP reporter assay; type: cell-based; conditions: HEK-Blue hTLR7 cells, SEAP in supernatant
T2 construct: host or cells: HEK-Blue hTLR7 (HEK293-derived)
T2 sequence (Q9NYK1 27-1049): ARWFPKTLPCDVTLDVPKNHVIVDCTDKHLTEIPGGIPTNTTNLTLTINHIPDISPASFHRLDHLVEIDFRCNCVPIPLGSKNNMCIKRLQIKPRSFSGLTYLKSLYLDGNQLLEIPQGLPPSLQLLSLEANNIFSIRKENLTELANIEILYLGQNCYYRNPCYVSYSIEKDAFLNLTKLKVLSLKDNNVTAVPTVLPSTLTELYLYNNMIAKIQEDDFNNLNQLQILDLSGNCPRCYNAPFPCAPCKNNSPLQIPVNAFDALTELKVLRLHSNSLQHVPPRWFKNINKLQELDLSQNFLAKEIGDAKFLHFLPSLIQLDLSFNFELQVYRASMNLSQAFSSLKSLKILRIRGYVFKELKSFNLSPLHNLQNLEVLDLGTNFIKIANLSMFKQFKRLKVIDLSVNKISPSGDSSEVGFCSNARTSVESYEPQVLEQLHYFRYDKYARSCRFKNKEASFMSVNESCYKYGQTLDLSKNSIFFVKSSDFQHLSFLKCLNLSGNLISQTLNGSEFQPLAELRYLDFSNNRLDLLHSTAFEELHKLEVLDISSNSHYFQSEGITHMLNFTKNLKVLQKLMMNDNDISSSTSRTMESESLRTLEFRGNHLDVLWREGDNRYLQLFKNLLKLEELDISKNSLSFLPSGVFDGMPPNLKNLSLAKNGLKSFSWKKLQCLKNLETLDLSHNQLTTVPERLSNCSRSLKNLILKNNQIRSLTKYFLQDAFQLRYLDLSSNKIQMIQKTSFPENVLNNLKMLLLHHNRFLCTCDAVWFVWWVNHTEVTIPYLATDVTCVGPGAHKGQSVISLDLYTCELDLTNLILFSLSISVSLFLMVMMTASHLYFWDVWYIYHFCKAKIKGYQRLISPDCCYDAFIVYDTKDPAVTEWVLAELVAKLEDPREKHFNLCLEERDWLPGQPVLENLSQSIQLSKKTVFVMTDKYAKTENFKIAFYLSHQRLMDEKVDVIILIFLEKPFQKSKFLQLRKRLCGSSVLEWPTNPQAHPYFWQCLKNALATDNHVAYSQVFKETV
Protocol: as §1, §2

[2] = system: J-LAT CD4 T cell line (latent HIV-1); experiment: J-LAT activation by supernatant of agonist-stimulated healthy donor PBMCs (GFP+ cells, FACS); conditions: 48 h, highest concentration 16 μM

With `CCCCNc1nc(N)nc2ccc(Cc3ccc(CN(C)C)cc3)nc12` [D018] the “p24 production after TLR8 or MyD88 knockdown” value ([1]; 1 μM, TLR8- or MyD88-shRNA U1 vs sham-knockdown) was “essentially abolished the p24 production”, the EC50 ([1]; Homo sapiens, read-out: EC50 of p24 production in U1) was 70 nM and the EC50 (hTLR8) was 6.46 nM. For the same molecule, the EC50 (hTLR7) was 40.2 nM and the “GFP-positive J-LAT cells, PBMC supernatant” value [2] was “most potent”.
